Inhibition data for 19 compounds are collected here from patent US20090143368A1, “Use of Cinnamoyl Compound” (priority 2005, published 2009).

Each structure is given as a SMILES string.

What is called inhibition is the change of the read-out against control, counted positive when it falls.

This assay has as its system transcription regulatory region for a human-derived Type I collagen α2 chain gene. Briefly: TGF-β-promoted transcription of a Type I collagen gene, COL-Luc luciferase reporter assay. Format: cell-based. To be noted: normal human fetal skin fibroblast transfected with COL-Luc, TGF-β added, 40 hours, read-out: Inhibition percentage of the ability of TGF-β to promote transcription of a Type I collagen gene; for inhibition at 3 µM: compound final concentration 3 μM; for inhibition at 1 µM: compound final concentration 1 μM; for inhibition at 10 µM: compound final concentration 10 μM. As for the experimental part: 1×10^8 cells of a normal human fetal skin fibroblast (Clontech, catalogue No. CC-2509) were cultured at 37° C. overnight under 5% CO2 atmosphere. After the cultured cells were washed with a sodium phosphate buffer (hereinafter, referred to as PBS) twice, 3 ml of PBS was added thereto and the cells were scraped away the wall of a vessel using a cell scraper (Nalgen, catalogue No. 179693). The scraped cells were collected by centrifugation (1,500 rpm, 4° C., 15 min), and these were suspended in 20 ml of PBS and centrifuged again. To the resulting precipitates were added 11 ml of Solution 2 and 4.8 μl of pronase of DNA Extraction Kit (Stratagene, catalogue No. 200600). After shaken at 60° C. for 1 hour, the resulting mixture was allowed to stand in ice for 10 minutes. Then, 4 ml of Solution 3 of the kit was added to the mixture. After mixed, the mixture was allowed to stand in ice for 5 minutes and then centrifuged (3,000 rpm, 4° C., 15 min) to recover a supernatant. To the recovered supernatant was added 2 μl of RNase per 1 ml of the supernatant and the mixture was allowed to stand at 37° C. for 15 minutes. To the mixture was added 2-fold volume of ethanol. After mixed, a white thread-like substance (genomic DNA) appeared and the substance was recovered. The recovered genomic DNA was washed with 70% ethanol and then air-dried. The air-dried genomic DNA was dissolved in 500 μl of 10 mM Tris-HCl, 1 mM EDTA (pH 8.0) (hereinafter, referred to as TE).
The resulting genomic DNA-dissolved solution (genomic DNA 1 μg corresponding amount) was mixed with each 1 μl of an oligonucleotide consisting of a base sequence represented by SEQ ID No.: 1 (SEQ ID No. 1: an oligonucleotide primer designed to amplify a collagen promoter DNA: ccaagctagc gaaattatct tttctttcat ag 32) and an oligonucleotide ([…]) consisting of a base sequence represented by SEQ ID No.:2 (SEQ ID No. 2: an oligonucleotide primer designed to amplify a collagen promoter DNA: ccaaaagctt gcagtcgtgg ccagtacc 28), 29 μl of distilled water, 5 μl of a buffer attached to TaKaRa LA Taq (TAKARA SHUZO Co., Ltd., catalogue No. RR002A), 5 μl of a Mg^2+ solution, 5 μl of a dNTP mixture and 0.5 μl of TaKaRa LA Taq (TAKARA SHUZO Co., Ltd., catalogue No. RR002A). After the resulting mixed solution was incubated at 94° C. for 5 minutes, the mixed solution was subjected to 30 cycles, in which one cycle consists of incubation at 94° C. for 1 minute, at 60° C. for 1 minute and then at 72° C. for 1 minute. The mixed solution was electrophoresed on a 2% agarose gel to recover about 0.5 kb of a DNA. The recovered DNA was treated with phenol/chloroform and then precipitated with ethanol to recover the DNA. The resulting DNA was dissolved in ultrapure water. To this solution were added 2.5 μl of NheI and 2.5 μl of HindIII, and then incubated at 37° C. for 3 hours. Then, the solution was electrophoresed on a 2% agarose gel to recover about 3.5 kb of a DNA. The recovered DNA was precipitated with ethanol to recover again the DNA (hereinafter, referred to as the collagen promoter DNA).
On the other hand, the vector pGL3 (Promega, catalogue No. E1751) having the nucleotide sequence encoding firefly luciferase was digested with NheI and HindIII, and then subjected to agarose gel electrophoresis as described above to recover about 5 kb of a DNA. The recovered DNA was precipitated with ethanol to recover the DNA again. To the recovered DNA were added 44 μl of distilled water, 5 μl of Buffer attached to Alkaline Phosphatase (TAKARA SHUZO, catalogue No. 2120A) and 1 μl of Alkaline Phosphatase (TAKARA SHUZO, catalogue No. 2120A). The mixed solution was incubated at 65° C. for 30 minutes. Then, the mixed solution was treated with phenol/chloroform twice, and precipitated with ethanol to recover the DNA (hereinafter referred to as the Luc vector DNA). […]
(In general: In a reporter assay the amount or activity of a reporter protein is the signal.)

On to `COC(=O)COc1cccc(C=CC(=O)C2=C(O)c3ccccc3S(=O)(=O)N2C)c1` [(1b), 4-hydroxy-3-[3-[3-[(methoxycarbonyl)methoxy]phenyl]acryloyl]-2-methyl-2H-1,2-benzothiazine-1,1-dioxide], for which the inhibition at 3 µM is at least 70%.

Regarding `COCC(=O)Nc1cccc(C=CC(=O)C2=C(O)c3ccccc3S(=O)(=O)N2C)c1` [(5b), 4-hydroxy-3-[3-[3-(methoxyacetylamino)phenyl]acryloyl]-2-methyl-2H-1,2-benzothiazine-1,1-dioxide], the inhibition at 1 µM is at least 70%. For `COCCNC(=O)c1cccc(C=CC(=O)C2=C(O)c3ccccc3S(=O)(=O)N2C)c1` [(10b), 4-hydroxy-3-[3-[3-[(2-methoxyethyl)aminocarbonyl]phenyl}acryloyl]-2-methyl-2H-1,2-benzothiazine-1,1-dioxide], the inhibition at 3 µM was at least 70%. On to `COC(=O)COc1cccc(C=CC(=O)c2ccc(C)[nH]c2=O)c1` [(11c), 3-[3-[3-[(methoxycarbonyl)methoxy]phenyl]-1-oxo-2-propenyl]-6-methyl-2(1H)-pyridinone], for which the inhibition at 10 µM is at least 70%.

Take `COC(=O)CNC(=O)c1cccc(C=CC(=O)C2=C(O)c3ccccc3S(=O)(=O)N2C)c1` [(13b), 4-hydroxy-3-[3-[3-[[(methoxycarbonylmethyl)amino]carbonyl]phenyl}acryloyl]-2-methyl-2H-1,2-benzothiazine-1,1-dioxide]: the inhibition at 3 µM was at least 70%. As to `CN1C(C(=O)C=Cc2cccc(OCCO)c2)=C(O)c2ccccc2S1(=O)=O` [(16b), 4-hydroxy-3-[3-[3-(2-hydroxyethoxy)phenyl]acryloyl]-2-methyl-2H-1,2-benzothiazine-1,1-dioxide], the inhibition at 1 µM was at least 70%. With `Cc1ccc(C(=O)/C=C/c2cccc(OCCO)c2)c(=O)[nH]1` [(16c), 3-[3-[3-(2-hydroxyethoxy)phenyl]-1-oxo-2-propenyl]-6-methyl-2(1H)-pyridinone], the inhibition at 10 µM is at least 70%.

Regarding `COCC(=O)Nc1cccc(C=CC(=O)c2c(O)c3cccnc3n(C)c2=O)c1` [(19a), 4-hydroxy-1-methyl-3-[3-[3-(methoxyacetylamino)phenyl]acryloyl]-1H-[1,8]naphthyridin-2-one], the inhibition at 3 µM is at least 70%.

On to `COCC(=O)Nc1ccc(C=CC(=O)c2c(O)c3cccnc3n(C)c2=O)cc1` [(20a), 4-hydroxy-1-methyl-3-[3-[4-(methoxyacetylamino)phenyl]acryloyl]-1H-[1,8]naphthyridin-2-one], for which the inhibition at 10 µM is at least 70%. `COCCNC(=O)c1cccc(C=CC(=O)c2c[nH]c3ccccc3c2=O)c1` [(23c), 3-[3-[3-[(2-methoxyethyl)aminocarbonyl]phenyl}acryloyl]-4(1H)-quinolinone]: the inhibition at 1 µM was at least 70%. Consider `COCCNC(=O)c1cccc(C=CC(=O)c2cn(C)c3ccccc3c2=O)c1` [(24c), 3-[3-[3-[(2-methoxyethyl)aminocarbonyl]phenyl}acryloyl]-1-methyl-4(1H)-quinolinone], for which the inhibition at 3 µM is at least 70%.

Take `COC(=O)CNC(=O)c1cccc(C=CC(=O)c2c(O)c3cccnc3n(C)c2=O)c1` [(29a), 4-hydroxy-1-methyl-3-[3-[3-[[(methoxycarbonylmethyl)amino]carbonyl]phenyl}acryloyl]-1H-[1,8]naphthyridin-2-one]: the inhibition at 3 µM was at least 70%. Regarding `COCCNC(=O)c1cccc(C=CC(=O)c2c(O)c3cccnc3[nH]c2=O)c1` [(31a), 4-hydroxy-3-[3-[3-[(2-methoxyethyl)aminocarbonyl]phenyl}acryloyl]-1H-[1,8]naphthyridin-2-one], the inhibition at 3 µM is at least 70%. On the same count and under the same terms, with `COCCNC(=O)c1cccc(C=CC(=O)c2c(O)c3cccnc3n(C)c2=O)c1` [(32a), 4-hydroxy-1-methyl-3-[3-[3-[(2-methoxyethyl)aminocarbonyl]phenyl}acryloyl]-1H-[1,8]naphthyridin-2-one] the figure was at least 70%; with `COC(=O)COc1cccc(C=CC(=O)c2c(O)c3cccnc3n(C)c2=O)c1` [(36a), 4-hydroxy-1-methyl-3-[3-[3-[(methoxycarbonyl)methoxy]phenyl]acryloyl]-1H-[1,8]naphthyridin-2-one], at least 70%; with `Cn1c(=O)c(C(=O)C=Cc2cccc(OCCO)c2)c(O)c2cccnc21` [(40a), 4-hydroxy-1-methyl-3-[3-[3-(2-hydroxyethoxy)phenyl]acryloyl]-1H-[1,8]naphthyridin-2-one], at least 70%.

On to `COCCOC(=O)Nc1cccc(C=CC(=O)c2c(O)c3cccnc3n(C)c2=O)c1` [(42a), 4-hydroxy-1-methyl-3-[3-[3-[(2-methoxyethoxy)carbonylamino]phenyl]acryloyl]-1H-[1,8]naphthyridin-2-one], for which the inhibition at 3 µM is at least 70%. `CN(C)CCOc1cccc(C=CC(=O)c2c(O)c3cccnc3n(C)c2=O)c1` [(56a), 4-hydroxy-1-methyl-3-[3-[3-(2-dimethylaminoethoxy)phenyl]acryloyl]-1H-[1,8]naphthyridin-2-one]: the inhibition at 10 µM is at least 70%.

Consider `COCCNC(=O)c1cccc(/C=C/C(=O)c2c(O)c3cccnc3n(C)c2=O)n1` [(124a), 4-hydroxy-1-methyl-3-[3-[6-(2-methoxyethyl)aminocarbonyl-2-pyridinyl]acryloyl]-1H-[1,8]naphthyridin-2-one], for which the inhibition at 10 µM was at least 70%.
